Laboratory results as given in patent publication US8546430B2, “Thalidomide analogs” (P2D, Inc., priority 2003, dated 2013).
pIC50: −log10 of the molar value. “Also recorded” adds a separate entry of the source.

Tests used:
TNF-α = experiment: Inhibition of LPS-induced TNF-α secretion in human PBMC (ELISA); format: cell-based; details: for pIC50 / inhibition at 30 µM: Homo sapiens, LPS-induced TNF-α production in PBMC; for TNF-α inhibitory activity (in words): LPS-stimulated PBMC; for Fold more active than thalidomide 201: inhibition of TNF-α synthesis, from IC50 values
Experimental: (§1) The action of the these thiothalidomide analogs in inhibiting TNF-α secretion was assessed in human peripheral blood mononuclear cells (PBMC) and the results are shown in Table 1. Freshly prepared PBMCs were utilized in all studies. Blood, 40 ml, was drawn from a volunteer, immediately mixed with 50 U/ml Na heparin and was diluted to 50 ml total volume with sterile PBS. Samples, 20 ml, of this preparation then were layered on 20 ml Ficoll-Paque and were centrifuged (800 g, 20 min). The Ficoll/serum interface, containing PBMCs, was collected, diluted to 200 ml with PBS, and then was centrifuged (800 g, 15 min) to pellet the cells. Thereafter, the recovered pellet was re-suspended in 37° C. tissue culture medium (RPMI/1 mM Sodium pyruvate/10% heat inactivated FBS/2 mM Glutamax) and placed on ice. Recovered cells were counted, pipetted (200 ul of 5×10^5/ml) into 96 well plates, and incubated for an hour (37° C., 5% CO2). Thereafter, appropriate concentrations of test compounds or vehicle (10 ul DMSO) were added to duplicate wells. Following a further hour of incubation, a 10 ul sample of lipopolysaccharide (LPS) (100 ng/ml in supplemented medium) or vehicle was added to induce stimulated and unstimulated cells, respectively, and the cells were incubated overnight. Sixteen hours later, supernatants were collected for quantification of TNF-α levels by ELISA assay (Pierce-Endogen human TNF-α mini kit, Rockford, Ill.) and the use of specific capture and detection monoclonal antibodies, M303E and M302B (Pierce-Endogen), respectively. ELISA plates were read at λ=450 nm and TNF-α levels were determined from a six-point calibration curve that was run concurrently with the test samples. The effect of test drug concentrations on the cellular viability of PBMCs was assessed by MTS assay (Promega, Madison, Wis.) of the cells that provided the supernatant samples assayed for TNF-α levels, described above. It should be understood that this method can be used to test any of the disclosed compounds as a screening assay for readily determining their TNF-α modulating activity, and for selecting them for use in the disclosed method of treating a subject.

3′-UTR of human TNF-α = experiment: Luciferase reporter assay, RAW264.7 cells with vs without the TNF-α 3′-UTR; format: cell-based; details: mouse macrophage line RAW264.7, 16 h; FIG. 1
Experimental: To determine the involvement of the 3′-UTR in the action of the thalidomide analogs, their ability to inhibit reporter gene activity in cells containing the TNF-α3′-UTR versus a control vector was assessed. This cell-based assay utilized two stably transfected cell lines derived from the mouse macrophage line, RAW264.7. One line, designated “luciferase only” expressed a luciferase reporter construct without any UTR sequences. The other line, designated “luciferase+TNF-α UTR” expressed a luciferase reporter construct with the entire 3′-UTR of human TNF-α inserted directly downstream of the luciferase coding region. Compounds were added in a concentration-dependent manner, and at the end of the incubation period (16 h, 37° C., 5% CO2) the media was removed, cells were lysed and luciferase activity was assayed with Steady-glo luciferase assay reagent (Promega) according to the supplier's directions. Background was subtracted and data from this assay was expressed as a ratio of the +3′-UTR to −3′-UTR (control) values, and was expressed as a percent as shown in FIG. 1. In this manner, compounds that show a differential effect on the two cell lines, with and without a 3′-UTR, are highlighted. […] All agents lowered luciferase reporter activity in cells stably expressing the 3′-UTR.

PBMC = experiment: Cellular viability of PBMCs by MTS assay; format: cell-based, human
Experimental: as §1

rat aortic ring = experiment: Rat aortic ring microvessel growth assay; format: cell-based; details: 0.1-20 μg/ml daily for 4 days; FIGS. 2-11
Experimental: The angiogenesis modulating activity of representative compounds was assessed in a rat aortic ring microvessel growth assay. Briefly, twelve-well tissue culture plates were coated with 250 μl of Matrigel (Becton-Dickinson, Bedford, Mass.) and allowed to gel for 30 min at 37° C. and 5% CO2. Thoracic aortas were excised from 8- to 10-week-old male Sprague Dawley rats. After careful removal of fibroadipose tissues, the aortas were cut into 1-mm-long cross-sections, placed on Matrigel-coated wells, and covered with an additional 250 μl of Matrigel. After the second layer of Matrigel had set, the rings were covered with EGM-II and incubated overnight at 37° C. and 5% CO2. EGM-II consists of endothelial cell basal medium (EBM-II; Clonetics, San Diego, Calif.) plus endothelial cell growth factors provided as the EGM-II Bulletkit (Clonetics). The culture medium was subsequently changed to EBM-II supplemented with 2% fetal bovine serum, 0.25 μg/ml amphotericin B, and 10 μg/ml gentamicin. Aortic rings were treated daily with either the vehicle (0.5% DMSO), carboxyamidotriazole (CAI, 12 μg/ml), thalidomide or thalidomide analogs (0.1-20 μg/ml) for 4 days and photographed on the 5th day using a ×2.5 objective. CAI, a known antiangiogenic agent, was used at higher than clinically achievable concentration as a positive control. Experiments were repeated four times using aortas from four different rats. The area of angiogenic sprouting, reported in square pixels, was quantified using Adobe PhotoShop. Further details of the method are provided in Luzzio et al., J Med Chem.; 46:3793-9, 2003, which is incorporated by reference herein. It should be understood that this method can be used as an assay to rapidly select compounds having a desired angiogenic or anti-angiogenic effect, for example, for use in the disclosed methods of treating a subject.

Row | Compound | Inhibition of TNF-α secretion at 30 μM (in words) (TNF-α; 30 μM) | pIC50 (TNF-α) | Concentration required for significant activity (TNF-α; inhibition of TNF-α secretion) [µM] | Luciferase reporter activity, +3′-UTR versus −3′-UTR cells (in words) (3′-UTR of human TNF-α) | inhibition at 30 µM (TNF-α; 30 μM) [%] | TNF-α inhibitory activity (in words) (TNF-α) | Toxicity / cytotoxicity (in words) (PBMC) | Cell viability at 0.3 μM (PBMC) [%] | Cell viability at 3 μM (PBMC) [%] | Cell viability at 30 μM (PBMC) [%] | Fold more active than thalidomide 201 (TNF-α) | Angiogenic modulating activity (in words) (rat aortic ring) | melting point [°C]
1 | O=C1CCC(N2C(=O)c3ccccc3C2=O)C(=O)N1 (centres unmarked) [Compound 201, Thalidomide] | entirely lacked activity | ~3.70 | 100 | lacked activity at 50 μM |  |  |  |  |  |  |  |  | 
2 | O=C1NC(=S)CCC1N1C(=O)c2ccccc2C1=S (centres unmarked) [Compound 215, 2,3-dihydro-3-thioxo-2-(2-oxo-6-thioxo-3-piperidinyl)-1H-isoindol-1-one] |  | 4.96 |  | differential effect on the two cell lines in a dose-dependent manner | 61 | potently inhibited TNF-α secretion | without toxicity | 94 | 87 | > 100 |  |  | 
3 | O=C1c2ccccc2C(=S)N1C1CCC(=S)NC1=S (centres unmarked) [Compound 216, 2,3-Dihydro-3-thioxo-2-(2,6-dithioxo-3-piperidinyl)-1H-isoindol-1-one] |  | 5.22 |  | differential effect on the two cell lines in a dose-dependent manner | 79 | potently inhibited TNF-α secretion | without accompanying toxicity | 90 | 86 | 94 | over 30 fold | potent anti-antigiogenic activity at higher concentrations and angiogenic activity at lower concentrations | 
4 | S=C1CCCC(=S)N1 [Compound 219, 2,6-Piperidinedithione] |  | 5.10 |  | differential effect on the two cell lines in a dose-dependent manner | 75 | potent inhibitory effect; also recorded: potently inhibited TNF-α secretion | lack of toxicity; also recorded: without toxicity | 99 | 98 | > 100 | 25 fold |  | 103
